{
  "source": "paper PMC10994559",
  "about": "(PLOS Neglected Tropical Diseases, 2024)",
  "key": {"[1]": {"assay": "Cytotoxicity assay J774, resazurin reduction", "type": "cell-based, murine", "details": "mouse, J774 macrophage cells; for viability at 72 h, 2.5 µM: read-out: viability, J774 (2.5 µM); for viability at 72 h, 25 µM: read-out: viability, J774 (25 µM)", "procedure": "Mammalian cell lines (J774 and HepG2) were passaged in RPMI media supplemented with MEM, Pen-Strep (1%) and 10% FCS. Cultures were kept at 37°C incubator with 5% CO2 in filter-cap flasks.\nMurine macrophage cells (J774) and human hepatocyte carcinoma HepG2 cells were seeded at 0.5x10^5 cell/well in 384 well plates in triplicate, exposed to serial dilution of compounds, dispensed using an Echo 650 acoustic dispenser (Labcyte). After incubation for 72 h at 37°C, 5% CO2, cell viability was determined using fluorescence resazurin reduction assay (λEx: 550 nm; λEm: 590 nm)."}, "T. cruzi trypomastigotes": {"test_system": "T. cruzi trypomastigotes", "assay": "T. cruzi viability, resazurin reduction", "type": "cell-based, Trypanosoma cruzi", "details": "Trypanosoma cruzi; for viability at 2.5 µM: read-out: viability, T.cruzi (2.5 µM); for viability at 25 µM: read-out: viability, T.cruzi (25 µM)", "procedure": "T. cruzi (Y strain) trypomastigotes were passaged in liver infusion broth media supplemented with tryptose, NaCl, Na2HPO4, KCl, glucose, hemin, Pen-Strep (1%), 10% FCS (pH: 7.2) and kept at 28°C.\n(§1) Viability of T. brucei brucei BSF and T. cruzi trypomastigotes was assayed with fluorescence resazurin reduction assay, essentially as described above. […] Next, selected compounds were tested at 2.5 μM concentration, and promising compounds subjected to 18 concentrations dose response analyses. AN3057 and AmB were used as a control drug in T. brucei and T. cruzi, respectively."}, "E. histolytica": {"test_system": "E. histolytica", "assay": "E. histolytica viability, ATP luminescence (Cell titer glo)", "type": "cell-based, Entamoeba histolytica", "details": "Entamoeba histolytica; for viability at 2.5 µM: read-out: viability, E.histolytica (2.5 µM); for viability at 25 µM: read-out: viability, E.histolytica (25 µM)", "procedure": "Entamoeba histolytica (strain B2-5) was passaged in TY-1 medium (Trypticase peptone BBL, Yeast extract BBL, glucose, NaCl, K2HPO4, KH2PO4, cysteine, ascorbic acid, ammonium iron citrate, adult bovine serum, Diamond tween 80, penicillin G, amikacin (pH:6.8)) and kept in 37°C incubator in completely filled tubes with closed lid.\nViability of E. histolytica was assayed via a luminescence assay based on ATP quantification in the live cells. Briefly, 2.5x10^4 cell/ml were exposed to 25 μM of compounds in 96 well plates (non-transparent, tissue culture treated, flat bottom; SPL Life Sciences) in triplicate for 48h. Plates were incubated in sealed anaerobic bags (Oxoid AGS) together with an Anaerogen compact bag (Thermo Scientific) and anaerobic indicator (Thermo Scientific) at 37°C. Then, Cell titer glo reagent (Promega) was added to the reaction (1:5) according to manufacturers’ instruction. After 15 min of orbital shaking, followed by 10 min incubation at RT, ATP-bioluminescence was quantified at RT using a Synergy H1 plate reader (Synergy H1, BioTek). Metronidazole was included as control drug in all the assays for E. histolytica. Test compounds indicating significant growth reduction in the primary screen were subjected to potency determination. These secondary screens were essentially carried out as detailed above, but with a 9 to 16-point concentration range of the test compounds spanning 0.01–100 μM."}, "[2]": {"test_system": "L. infantum promastigotes", "assay": "L. infantum promastigote viability, resazurin reduction", "type": "cell-based, Leishmania infantum", "details": "Leishmania infantum, sheet LTC_compound_viability, value ± spread; for viability at 2.5 µM: read-out: viability, L. infantum promastigote (2.5 µM); for viability at 25 µM: read-out: viability, L. infantum promastigote (25 µM)", "text": "(§2) The infectivity of the parasites was boosted by passaging in Balb/c mice and culturing the infected lymph nodes after six weeks. L. infantum (MHOM / BR / 76 / M4192) parasite was passaged in the same media formulation with 0.5% urine."}, "[3]": {"test_system": "L. major axenic amastigotes", "assay": "L. major axenic amastigote viability, resazurin reduction", "details": "Leishmania major, read-out: viability, L.major amastigote (25 µM)", "procedure": "L. major LV561(MHOM/IL/67/LRC-L137 JERICHO II) amastigotes were passaged in Grace insect medium supplemented with NaHCO3, 0.1% amikin and 20% of FCS (pH: 5.4) and kept at 33°C.\nExponential growth phase promastigotes of L. major or L. infantum and axenic amastigotes (L. major) were harvested and seeded in 384 well plates (white, non-transparent, tissue culture treated, flat bottom; Corning) (0.5x10^5 cells per well). Compounds were pre-dispensed into the plate with an Echo 650 acoustic dispenser (Beckman Coulter). After 72h incubation, resazurin was added (1:10 v/v) from a […] stock in PBS, followed by incubation for six hours. Then, fluorescence intensity was measured using a microplate reader (Synergy H1, BioTek) with excitation filter: 550 nm and emission filter: 590 nm. Efficient compounds were selected for the next round of viability assay with 2.5 μM concentrations of the compounds. […] All experiments were performed with AmB as a positive control drug in parallel.\nAxenic amastigotes, the relevant form that persists in the infected host, were generated in the lab through established procedures, employing harsh pH (pH 5) and high temperature (33°C) conditions."}, "T. brucei brucei BSF": {"test_system": "T. brucei brucei BSF", "assay": "T. brucei BSF viability, resazurin reduction", "type": "cell-based, Trypanosoma brucei brucei", "details": "Trypanosoma brucei; for viability at 2.5 µM: read-out: viability, T.brucei (2.5 µM); for viability at 25 µM: read-out: viability, T.brucei (25 µM)", "procedure": "T. brucei brucei (strain 427 Lister) blood stream form (BSF) parasites were passaged in complete HMI-9 media supplemented with 10% FCS, Pen-Strep (0.1%) and 2-mercaptoethanol (0.014 v/v) and kept in a 37° C CO2 incubator in filter-cap flasks.\nas §1"}, "[4]": {"test_system": "intracellular L. infantum amastigotes", "assay": "Parasite rescue assay (intramacrophage, J774 infected with L. infantum)", "type": "cell-based, Leishmania infantum", "details": "J774, 25 µM; intracellular amastigote; read-out: viability, intracellular L. major amastigote (25 µM)"}, "L. major promastigotes": {"test_system": "L. major promastigotes", "assay": "L. major promastigote viability, resazurin reduction", "type": "cell-based, Leishmania major", "details": "Leishmania major, read-out: viability, L.major promastigote (25 µM)", "text": "as §2"}},
  "note": "Like-named read-outs stand apart in the source and are kept apart here.",
  "data": [
    {"smiles": "N[C@@H](Cc1ccccc1)[C@@H](O)CNc1ccc(F)cc1", "note": "[LTC-1026, (2S,3S)-3-Amino-1-((4-fluorophenyl)amino)-4-phenylbutan-2-ol]", "values": [
      {"measurement": "viability at 72 h, 2.5 µM", "setting": "[1]", "value": "94.6 ± 3.96", "unit": "%"},
      {"measurement": "viability at 72 h, 25 µM", "setting": "[1]", "value": "-0.01 ± 0.89", "unit": "%"},
      {"measurement": "viability at 2.5 µM", "setting": "T. cruzi trypomastigotes", "value": "58.6 ± 1.12", "unit": "%"},
      {"measurement": "viability at 25 µM", "setting": "T. cruzi trypomastigotes", "value": "57.8 ± 6.73", "unit": "%"},
      {"measurement": "viability at 2.5 µM", "setting": "E. histolytica", "value": "65.6 ± 10.1", "unit": "%"},
      {"measurement": "viability at 25 µM", "setting": "E. histolytica", "value": "113 ± 30.5", "unit": "%"},
      {"measurement": "viability at 2.5 µM", "setting": "[2]", "value": "84.16 ± 0.61", "unit": "%"},
      {"measurement": "viability at 25 µM", "setting": "[2]", "value": "56.98 ± 0.29", "unit": "%"},
      {"measurement": "viability at 25 µM", "setting": "[3]", "value": "59.5 ± 7.56", "unit": "%"},
      {"measurement": "melting point", "value": "88 to 90", "unit": "°C"},
      {"measurement": "viability at 2.5 µM", "setting": "T. brucei brucei BSF", "value": "71.2 ± 5.23", "unit": "%"},
      {"measurement": "viability at 25 µM", "setting": "T. brucei brucei BSF", "value": "2.26 ± 0.92", "unit": "%"},
      {"measurement": "viability at 25 µM", "setting": "[4]", "value": "102 ± 4.55", "unit": "%"},
      {"measurement": "viability at 25 µM", "setting": "L. major promastigotes; 72 h", "value": "93.3 ± 1.34", "unit": "%"},
      {"measurement": "viability at 25 µM", "setting": "L. major promastigotes; 25 µM", "value": "34.1 ± 3.37", "unit": "%"}
    ]},
    {"smiles": "N[C@@H](Cc1ccccc1)[C@@H](O)CNc1ccc(C(F)(F)F)cc1", "note": "[LTC-1027, (2S,3S)-3-Amino-4-phenyl-1-((4-(trifluoromethyl)phenyl)amino)butan-2-ol]", "values": [
      {"measurement": "viability at 72 h, 2.5 µM", "setting": "[1]", "value": "96.1 ± 4.11", "unit": "%"},
      {"measurement": "viability at 72 h, 25 µM", "setting": "[1]", "value": "99.9 ± 8.05", "unit": "%"},
      {"measurement": "viability at 2.5 µM", "setting": "T. cruzi trypomastigotes", "value": "61.8 ± 2.34", "unit": "%"},
      {"measurement": "viability at 25 µM", "setting": "T. cruzi trypomastigotes", "value": "12 ± 0.47", "unit": "%"},
      {"measurement": "viability at 2.5 µM", "setting": "E. histolytica", "value": "79.1 ± 9.1", "unit": "%"},
      {"measurement": "viability at 25 µM", "setting": "E. histolytica", "value": "2.09 ± 3.63", "unit": "%"},
      {"measurement": "viability at 2.5 µM", "setting": "[2]", "value": "77.9 ± 1.82", "unit": "%"},
      {"measurement": "viability at 25 µM", "setting": "[2]", "value": "0.64 ± 0.3", "unit": "%"},
      {"measurement": "viability at 25 µM", "setting": "[3]", "value": "75.5 ± 3.25", "unit": "%"},
      {"measurement": "melting point", "value": "105 to 107", "unit": "°C"},
      {"measurement": "viability at 2.5 µM", "setting": "T. brucei brucei BSF", "value": "11.2 ± 1.8", "unit": "%"},
      {"measurement": "viability at 25 µM", "setting": "T. brucei brucei BSF", "value": "2.27 ± 0.89", "unit": "%"},
      {"measurement": "viability at 25 µM", "setting": "[4]", "value": "79.3 ± 16.4", "unit": "%"},
      {"measurement": "viability at 25 µM", "setting": "L. major promastigotes; 72 h", "value": "72.2 ± 16.2", "unit": "%"},
      {"measurement": "viability at 25 µM", "setting": "L. major promastigotes; 25 µM", "value": "-0.24 ± 0.15", "unit": "%"}
    ]},
    {"smiles": "N[C@@H](Cc1ccccc1)[C@@H](O)CNc1ccc(OC(F)(F)F)cc1", "note": "[LTC-1028, (2S,3S)-3-Amino-4-phenyl-1-((4-(trifluoromethoxy)phenyl)amino)butan-2-ol]", "values": [
      {"measurement": "viability at 72 h, 2.5 µM", "setting": "[1]", "value": "97.4 ± 5.26", "unit": "%"},
      {"measurement": "viability at 72 h, 25 µM", "setting": "[1]", "value": "-0.47 ± 0.78", "unit": "%"},
      {"measurement": "viability at 2.5 µM", "setting": "T. cruzi trypomastigotes", "value": "61 ± 0.78", "unit": "%"},
      {"measurement": "viability at 25 µM", "setting": "T. cruzi trypomastigotes", "value": "12.4 ± 0.9", "unit": "%"},
      {"measurement": "viability at 2.5 µM", "setting": "E. histolytica", "value": "71.9 ± 4.72", "unit": "%"},
      {"measurement": "viability at 25 µM", "setting": "E. histolytica", "value": "37.8 ± 19.9", "unit": "%"},
      {"measurement": "viability at 2.5 µM", "setting": "[2]", "value": "78.3 ± 1.53", "unit": "%"},
      {"measurement": "viability at 25 µM", "setting": "[2]", "value": "0.58 ± 0.24", "unit": "%"},
      {"measurement": "viability at 25 µM", "setting": "[3]", "value": "59.3 ± 3.42", "unit": "%"},
      {"measurement": "melting point", "value": "112 to 114", "unit": "°C"},
      {"measurement": "viability at 2.5 µM", "setting": "T. brucei brucei BSF", "value": "19.7 ± 4.81", "unit": "%"},
      {"measurement": "viability at 25 µM", "setting": "T. brucei brucei BSF", "value": "2.01 ± 0.92", "unit": "%"},
      {"measurement": "viability at 25 µM", "setting": "[4]", "value": "79.1 ± 22", "unit": "%"},
      {"measurement": "viability at 25 µM", "setting": "L. major promastigotes; 72 h", "value": "81.6 ± 2", "unit": "%"},
      {"measurement": "viability at 25 µM", "setting": "L. major promastigotes; 25 µM", "value": "0.32 ± 0.34", "unit": "%"}
    ]}
  ]
}
